# ChEMBL document CHEMBL1201862, “PubChem BioAssay data set” (2004)
# Structures can show the parent of a compound that is named as a salt. Active and inactive are the calls of the source.
# Experiments:
# [1] = biological target: T1, Caspase-3 (Homo sapiens, UniProt P42574); type: functional;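 also: Dose-response selectivity test against caspase-3 for candidate inhibitors of sentrin-specific proteases (SENPs)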
# T1 sequence (P42574 whole entry): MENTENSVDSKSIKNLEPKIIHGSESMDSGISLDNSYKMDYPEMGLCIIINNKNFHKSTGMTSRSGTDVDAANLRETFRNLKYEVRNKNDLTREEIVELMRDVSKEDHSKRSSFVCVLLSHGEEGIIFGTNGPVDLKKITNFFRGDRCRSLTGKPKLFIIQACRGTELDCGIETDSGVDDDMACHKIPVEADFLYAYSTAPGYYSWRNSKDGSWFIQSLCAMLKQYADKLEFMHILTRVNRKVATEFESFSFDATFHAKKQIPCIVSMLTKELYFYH
# [2] = biological target: Heat shock protein HSP 90-alpha (Homo sapiens, UniProt P07900); type: functional, organism-based
# [3] = biological target: T2, Protein RecA (Mycobacterium tuberculosis, UniProt P9WHJ3); assay: Fluorescence Cell-Free Homogeneous Dose Retest to Identify Inhibitors of RecA-Intein Splicing Activity. [Related pubchem assays (depositor defined):AID2097, AID2223, AID489010, AID492950]; type: functional
# T2 sequence (P9WHJ3 whole entry): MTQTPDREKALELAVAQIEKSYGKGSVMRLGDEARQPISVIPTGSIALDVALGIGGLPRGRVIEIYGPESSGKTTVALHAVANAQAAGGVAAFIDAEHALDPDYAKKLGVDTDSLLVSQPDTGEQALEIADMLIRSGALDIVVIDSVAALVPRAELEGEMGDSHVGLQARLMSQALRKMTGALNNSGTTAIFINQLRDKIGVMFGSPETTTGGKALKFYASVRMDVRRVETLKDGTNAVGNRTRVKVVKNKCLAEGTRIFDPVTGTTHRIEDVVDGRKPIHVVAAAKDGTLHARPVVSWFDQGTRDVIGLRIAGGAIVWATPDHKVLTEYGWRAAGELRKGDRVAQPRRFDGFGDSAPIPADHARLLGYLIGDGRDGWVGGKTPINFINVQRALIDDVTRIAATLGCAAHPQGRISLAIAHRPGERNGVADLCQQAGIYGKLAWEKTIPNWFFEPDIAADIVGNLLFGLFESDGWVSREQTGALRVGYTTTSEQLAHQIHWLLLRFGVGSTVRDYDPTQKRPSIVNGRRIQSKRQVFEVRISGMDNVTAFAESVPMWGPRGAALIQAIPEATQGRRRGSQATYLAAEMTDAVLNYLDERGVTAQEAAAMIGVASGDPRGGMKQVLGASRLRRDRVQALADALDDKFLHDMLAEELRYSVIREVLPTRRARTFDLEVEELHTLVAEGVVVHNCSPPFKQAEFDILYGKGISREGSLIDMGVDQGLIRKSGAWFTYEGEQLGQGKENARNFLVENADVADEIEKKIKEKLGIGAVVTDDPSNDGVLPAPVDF
# [4] = biological target: T3, Replicative DNA helicase DnaB (Mycobacterium tuberculosis, UniProt P9WMR3); assay: DnaB intein splicing inhibitors, dose response, biochemical, cell-free fluorescence (AID 449749); type: functional
# T3 sequence (P9WMR3 whole entry): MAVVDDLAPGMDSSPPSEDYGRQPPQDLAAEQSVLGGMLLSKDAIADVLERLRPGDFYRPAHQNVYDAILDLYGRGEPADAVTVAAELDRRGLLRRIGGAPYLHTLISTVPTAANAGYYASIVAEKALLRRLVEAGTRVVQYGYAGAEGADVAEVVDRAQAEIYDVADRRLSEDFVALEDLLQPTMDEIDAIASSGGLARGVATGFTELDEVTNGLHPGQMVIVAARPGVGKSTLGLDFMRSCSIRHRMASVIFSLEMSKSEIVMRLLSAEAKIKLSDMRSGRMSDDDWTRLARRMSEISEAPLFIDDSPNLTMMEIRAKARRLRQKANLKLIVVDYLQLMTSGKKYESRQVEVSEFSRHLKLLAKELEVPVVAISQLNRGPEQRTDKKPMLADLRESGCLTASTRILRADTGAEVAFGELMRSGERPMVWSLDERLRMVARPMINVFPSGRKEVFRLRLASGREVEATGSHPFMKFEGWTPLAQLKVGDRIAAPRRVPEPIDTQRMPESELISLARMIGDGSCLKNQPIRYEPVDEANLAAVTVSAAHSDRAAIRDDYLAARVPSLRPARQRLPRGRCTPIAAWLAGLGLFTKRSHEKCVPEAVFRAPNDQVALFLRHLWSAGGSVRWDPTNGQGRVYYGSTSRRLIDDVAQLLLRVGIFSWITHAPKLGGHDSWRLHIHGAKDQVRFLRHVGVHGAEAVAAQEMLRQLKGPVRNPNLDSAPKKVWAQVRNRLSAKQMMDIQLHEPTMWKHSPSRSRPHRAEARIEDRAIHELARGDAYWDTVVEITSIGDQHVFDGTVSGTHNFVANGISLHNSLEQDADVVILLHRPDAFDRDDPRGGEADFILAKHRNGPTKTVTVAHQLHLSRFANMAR
SMILES,IC50 [1],AC50 [2],EC50 [3],AC50 [4]
CCC(C)n1c(NC(=O)c2ccccc2)c(C#N)c2nc3ccccc3nc21 (stereo not given),13.3 µM (active),,,
CCN1/C(=C\c2ccc3ccccc3[n+]2CC)Sc2cc(C)ccc21,,7.75 µM (active),,
CCCCCCCCCCOC(=O)C[n+]1c(COc2ccc(C)cc2)n(C)c2ccccc21,,19.3 µM (active),11.7 µM (active),3.82 µM (active)
O=C(CCl)Oc1ccc2occ(C(=O)c3cccs3)c2c1,21.4 µM (active),,19.3 µM (active),16.8 µM (active)
CC[C@@H](CO)NC(=O)[C@@H]1C=C2c3cccc4c3c(cn4C)C[C@H]2N(C)C1 [METHYSERGIDE MALEATE],,,237 µM (active),> 380 µM (inactive)
